Laboratory results as given in patent US20040241706A1, “Highly specific modulators of GTPases for target validation” (IRM, LLC, priority 2002, published 2004).
Positions count from the first letter of the chain named.

Columns and labels:
GTPase mutant N116C = biological target: T1, GTPase mutant N116C (Homo sapiens, UniProt P01112, N116C); assay: Ras inhibitor / guanine nucleotide exchange assay with 3H-GDP, mutant N116C; format: binding; conditions: FIG. 17
T1 construct: made in house; host or cells: E. coli BL21-Gold, pGEX vector
Source text: (§1) One exemplary assay which can be used are Ras “inhibition” or “guanine nucleotide exchange” assays, as schematically illustrated in FIG. 8, and described in detail in the Examples hereinbelow. The assay detects inhibition of wild-type and mutant Ras proteins by using ^3H-labelled GDP and cold (non-tritiated) synthetic Ras inhibitors.
FIG. 15 provides a bar chart depicting the ability of various guanosine-based modulators to displace radiolabeled GDP from the GTPase mutant N116C.
FIGS. 16 and 17 graphically illustrates the inhibitory effect of the C-6 or N-7 substituted GMP-scaffold modulators on the double mutant N116G-T114C and the mutant N116C, respectively. […] The inhibitory effect was in the range of approximately 50-80%. […]
(§2) For example, purified mutant Ras (19A-116A) or wild type H-Ras protein (0.5 to 20 μg) was incubated in 40 μL of GTP exchange buffer (50 mM Tris-HCl pH 7.5, 50 mM NaCl, 5 mM EDTA, 1 mM DTT, 1 mg/mL BSA) containing either DMSO, GTP (100 μM) or a modulator (100 μM) for 30 min at 25° C. […] Filters were dried and the bound radioactivity was measured by scintillation counting (Beckman, #LS6500).
(§3) Cold GDP was used as a positive control. […] All of the measurements are in comparison to a background radioactivity count, such that the level of inhibition for a given compound was determined by the number of counts in comparison to the control. […]

single mutant N116G Ras = biological target: T2, single mutant N116G Ras (Homo sapiens, UniProt P01112, N116G); assay: Ras inhibitor / guanine nucleotide exchange assay with 3H-GDP, single mutant N116G; format: binding; conditions: FIG. 12 panel B
T2 construct: made in house; host or cells: E. coli BL21-Gold, pGEX vector
Source text: as §1
FIG. 12 provides the inhibitor assay results for compounds 43 through 45 (e.g, respectively) as compared to the positive control GTP, for the wild-type Ras protein (panel A) and the single mutant N116G (SEQ ID No. 7). […] Thus, substitution of the N116 residue with a glycine appears to be a favorable mutation leading to expansion of the GTP binding pocket. […]
as §2, §3

mutant Ras (19A-116A) = biological target: T3, mutant Ras (19A-116A) (Homo sapiens, UniProt P01112, L19A/N116A); assay: Ras inhibitor / guanine nucleotide exchange assay with 3H-GDP, double mutant L19A-N116A; format: binding; conditions: for displacement of radioactive GDP from the mutant GTPase: remaining radioactivity count; for IC50: mutant (19A-116A) Ras, FIG. 34, read-out: IC50 (concentration at which 50% inhibition of GTP binding is observed)
T3 construct: made in house; host or cells: E. coli BL21-Gold, pGEX vector
Source text: as §1
FIG. 11 graphically illustrates the inhibition of double mutant L19A-N116A (SEQ ID No. 11) by various C-6 substituted GTP moieties (compounds 39 through 42, presented as a-d in the figure), as compared to the negative control (nothing added to displace the radiolabeled GDP), positive control (cold GDP), and background count (no GTPase enzyme added).
The GTPase modulators of the present invention were screened against wild-type and/or mutant GTPases for their effectiveness as GTPase inhibitors. Ras inhibitor assays were performed to test the activity of the synthesized modulators against various wild-type and/or mutant GTPases of interest, and/or to compare the different modulators based upon the relative observed level of inhibition.
For example, purified mutant Ras (19A-116A) or wild type H-Ras protein (0.5 to 20 μg) was incubated in 40 μL of GTP exchange buffer (50 mM Tris-HCl pH 7.5, 50 mM NaCl, 5 mM EDTA, 1 mM DTT, 1 mg/mL BSA) containing either DMSO, GTP (100 μM) or a modulator (100 μM) for 30 min at 25° C. This pre-incubation was followed by the additions of 2 μCi ^3H-GDP (NEN, #NET966) and, 10 min later, 25 mM MgCl2. After another 5 min of incubation, the reaction mixture was applied to a nitrocellulose filter (Millipore, #HAWP02500) pre-wetted with wash buffer (50 mM Tris-HCl pH 7.5, 10 mM MgCl2), the filter was then washed using 10 mL of wash buffer. Filters were dried and the bound radioactivity was measured by scintillation counting (Beckman, #LS6500).
Cold GDP was used as a positive control. Since the positive control naturally replaces the radioactive GDP in both the wild-type and mutant GTPase proteins, significant drops in radiolabeling are observed. Water was used as a negative control. All of the measurements are in comparison to a background radioactivity count, such that the level of inhibition for a given compound was determined by the number of counts in comparison to the control. Thus, a high radioactivity count is indicative of a high level of binding between the mutant GTPase and the radioactive GDP.

[1] = biological target: T4, mutant enzyme (19A-116A) Ras binding to the Ras binding domain (RBD) of the Raf kinase (Homo sapiens, UniProt P01112, L19A/N116A); assay: Effector binding assay: pull-down with Ras binding domain (RBD) of Raf kinase, western blot; format: biochemical; conditions: FIG. 35
T4 construct: GST (N); made in house; host or cells: E. coli BL21-Gold, pGEX vector (Ras)
Experimental: The ability of the mutant enzyme (19A-116A) to bind to a known effector of H-Ras was confirmed. Using the Ras binding domain (RBD) of the Raf kinase, the ability of the mutant enzyme to undergo a conformational change upon GTP binding, and, thus, to bind the effector was determined. In brief, purified mutant or wild-type proteins (150 ng) were incubated in 1 mL of loading buffer (100 mM Tris-HCl pH 7.5, 2 mM EDTA, 1 mM DTT, 1 mg/mL BSA) in the presence of 10 mM of GDP, GTP, 7 d or both GTP and 7 d for 15 min at 25° C. for loading the protein with the appropriate nucleotides. Following loading, MgCl2 (20 mM) was added along with GST-RBD (1.2 mg), comprising Raf kinase amino acids 53-131, bound to glutathione sepharose beads. The resulting suspensions were incubated with rotation for 30 min at 4° C. The beads were then washed three times with 1 mL of washing buffer (50 mM Tris-HCl pH 7.5, 50 mM NaCl, 20 mM MgCl2, 1 mM DTT) to remove unbound H-Ras proteins. The beads were boiled in SDS loading buffer, and the samples were separated by electrophoresis. Following transfer, the PVDF membrane was probed with anti-H-Ras and the amount of H-Ras bound to the RBD glutathione sepharose beads was visualized using anti-rabbit HRP in conjunction with WestPico (Pierce).

wild-type Rap1B enzyme = biological target: T5, wild-type Rap1B enzyme (Homo sapiens, UniProt P61224); assay: Selective binding, wild-type Rap1B; conditions: FIG. 33B
T5 construct: GST (N); made in house; host or cells: E. coli BL21-Gold, pGEX-4T (described for the mutant; inferred for the wild type)
T5 sequence (P61224 1-184): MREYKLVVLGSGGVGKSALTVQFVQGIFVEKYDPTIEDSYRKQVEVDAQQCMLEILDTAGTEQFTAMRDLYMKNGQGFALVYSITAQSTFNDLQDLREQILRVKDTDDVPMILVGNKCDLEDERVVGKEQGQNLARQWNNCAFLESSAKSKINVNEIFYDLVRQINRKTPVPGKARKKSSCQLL
Source text: (§4) To confirm the general applicability of the methods and compositions of the present invention in the context of GTPases other than H-Ras, alanine substitutions at amino acids corresponding to positions 19 and 116 of Ras were introduced into the Rap1B GTPase. As shown in the alignment of Table 1, the identical amino acid residues, i.e., leucine at position 19, and asparagine at position 116, are present in Rap1B.
(§5) The mutant Rap1B protein construct was made as described above with respect to the Ras mutant proteins. All mutant proteins were made in the pGEX-4T bacterial expression system using the Quickchange protocol […] according to the manufacturer's instructions. Mutant Rap1B cDNAs were transformed individually in BL21-Gold competent cells (Stratagene) according to the manufacturer's instructions. An overnight culture of BL21-Gold cells containing one of the GST-Rap1B plasmids described above was diluted 1:50 in Superbroth medium (Q-Biogene) supplemented with 50 mg/L carbenicillin. After it had grown to an OD=0.6, synthesis of the GST-Rap1B protein was induced by the addition of IPTG (50 mM) and by further incubation at 30° C. for 12 h. After centrifugation at 3,500 g for 15 min at 4° C., the cell pellet was frozen at −80° C. for 1 h. […] Protein concentration was determined by a Bradford assay and the protein purity was assessed by gel electrophoresis.

mutant Rap1B enzyme = biological target: T6, mutant Rap1B enzyme (Homo sapiens, UniProt P61224, L19A/N116A); assay: Selective binding to mutant Rap1B (alanine at positions 19 and 116); conditions: FIG. 33B
T6 construct: made in house; host or cells: E. coli BL21-Gold, pGEX-4T
T6 sequence (P61224 1-184 L19A/N116A): T5 sequence (P61224 1-184) with L19A, N116A
Source text: as §4, §5

wild type H-Ras = biological target: T7, wild type H-Ras (Homo sapiens, UniProt P01112); assay: Ras inhibitor / guanine nucleotide exchange assay with 3H-GDP, wild type; format: binding; conditions: at a concentration of 100 μM
T7 construct: made in house; host or cells: E. coli BL21-Gold, pGEX vector
Source text: as §1
The GTPase modulators of the present invention were screened against wild-type and/or mutant GTPases for their effectiveness as GTPase inhibitors. […]
as §2
Cold GDP was used as a positive control. […] All of the measurements are in comparison to a background radioactivity count, such that the level of inhibition for a given compound was determined by the number of counts in comparison to the control. Thus, a high radioactivity count is indicative of a high level of binding between the mutant GTPase and the radioactive GDP.

| Compound | inhibition of the mutant GTPase (decrease in radiolabel remaining bound) (single mutant N116G Ras) | displacement of radioactive GDP from the mutant GTPase (mutant Ras (19A-116A)) | effector (Raf RBD) binding of the mutant enzyme [1] | effect on the wild-type Rap1B enzyme (wild-type Rap1B enzyme) | binding to the mutant Rap1B enzyme (mutant Rap1B enzyme) | IC50 (mutant Ras (19A-116A)) [nM] | also measured |
| --- | --- | --- | --- | --- | --- | --- | --- |
| 6-S-mercaptoguanosine-5′-phosphate [Compound 82] |  |  |  |  |  |  | inhibitory effect on the N116C mutant (GTPase mutant N116C): 50-80% |
| Nc1nc(=S)c2ncn([C@@H]3O[C@H](COP(=O)(O)OP(=O)(O)OP(=O)(O)O)[C@@H](O)[C@H]3O)c2[nH]1 [Compound 45, 6-S-mercaptoguanosine-5′-triphosphate] | significantly inhibit |  |  |  |  |  |  |
| (2-phenyl)ethyl-GTP [Compound 52] |  | displaced the radioactive GDP | prompts effector binding | negligably affecting | bind tightly |  |  |
| Nc1nc2c(ncn2[C@@H]2O[C@H](COP(=O)(O)OP(=O)(O)O)[C@@H](O)[C@H]2O)c(=O)[nH]1 [GDP, reference compound] |  |  |  |  |  | ~1500 |  |
| C=CCOc1nc(N)nc2c1ncn2[C@@H]1O[C@H](COP(=O)(O)OP(=O)(O)OP(=O)(O)O)[C@@H](O)[C@H]1O [Compound 43, 6-O-allyl guanosine-5′-triphosphate] | significantly inhibit |  |  |  |  |  |  |
| Nc1nc2c(c(CCc3ccccc3)cn2[C@@H]2O[C@H](COP(=O)(O)OP(=O)(O)O)[C@@H](O)[C@H]2O)c(=O)[nH]1 [Compound 60, 7-deaza-7-(2″-phenyl)ethyl guanosine-5′-diphosphate] |  | displaced the radioactive GDP | prevents effector binding | negligably affecting | bind tightly | 300 | potency relative to GDP at displacing GTP from the mutant GTPase protein (mutant Ras (19A-116A); ratio of IC50 values): 5 times; inhibition of wild-type H-Ras (wild type H-Ras): does not inhibit |
